The target in this experiment is hTREM2 (Homo sapiens, UniProt Q9NZC2). The experiment in a line: TREM2 activity by cellular Syk phosphorylation (AlphaScreen/AlphaLISA) in TREM2/DAP12-HEK cells, used for Examples 1-305. Details: expressed in transfected cells. The note with it: HEK293 Cells. It counts as cell-based. The method in brief:
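Phospho-Syk (Tyr525/526) over total Syk quantified by AlphaScreen in lysates of cloned TREM2/DAP12-overexpressing HEK293 cells after 45 min compound treatment at room temperature, 1% final DMSO. Values expressed relative to 100 nM anti-TREM2 antibody (positive) and isotype IgG (negative) controls; curves fitted with 4-parameter logistic model.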
In general terms: Bead proximity is the source of the signal in Alpha formats.

SMILES strings stand for the structures.

For orientation: EC50 means the concentration giving half of the maximal effect. High values mean a need for much substance, low ones an effect from little substance.

Sequence of hTREM2 (Q9NZC2 19-230): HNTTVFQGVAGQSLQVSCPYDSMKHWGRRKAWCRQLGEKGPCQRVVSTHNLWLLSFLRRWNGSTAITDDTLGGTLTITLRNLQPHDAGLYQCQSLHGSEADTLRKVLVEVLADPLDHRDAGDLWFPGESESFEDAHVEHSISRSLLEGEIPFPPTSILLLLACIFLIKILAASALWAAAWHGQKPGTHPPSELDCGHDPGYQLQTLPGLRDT
Sequence of hTREM2 (O43914 22-113 partner): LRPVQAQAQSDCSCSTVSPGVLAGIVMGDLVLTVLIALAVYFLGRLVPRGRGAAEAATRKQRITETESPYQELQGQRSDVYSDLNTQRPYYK

Consider `Cc1ccc2c(-c3ccc(Cl)cc3F)nc([C@@H]3CCO[C@H](c4cnn(C5CC5)c4)C3)nc2n1` [Example 260, 4-(4-chloro-2-fluorophenyl)-2-((2S,4R)-2-(1-cyclopropyl-1H-pyrazol-4-yl)tetrahydro-2H-pyran-4-yl)-7-methylpyrido [2,3-d]pyrimidine], for which the EC50 lay in the range of 500 to 3000 nM; the “hTREM2 Emax” value was “+++ (Emax>150 and ≤250)”.

Take `Cc1nc2nc([C@H]3C[C@@H](C)O[C@@H](c4cnn(C)c4)C3)nc(-c3ccc(Cl)cc3F)c2nc1C` (single isomer, unassigned) [Example 216]: the EC50 is not above 50 nM; the “hTREM2 Emax” value is “+++ (Emax>150 and ≤250)”.

Take `Cc1cc2c(OC[C@@H]3C[C@H]3C(F)(F)F)nc(N3CCO[C@@H](c4cnn(C)c4)C3)nc2nc1C` [Example 110, 6,7-dimethyl-2-((2S)-2-(1-methyl-1H-pyrazol-4-yl)-4-morpholinyl)-4-(((1R,2R)-2-(trifluoromethyl)cyclopropyl)methoxy)pyrido[2,3-d]pyrimidine]: the EC50 lay in the range of 500 to 3000 nM; the “hTREM2 Emax” value is “+ (Emax>45 and ≤100)”.

As to `Cc1ccc2c(-c3ccc(Cl)cc3F)nc(N3CCO[C@@H](c4cnn(C5CC5)c4)C3)cc2n1` [Example 150, 5-(4-chloro-2-fluorophenyl)-7-((2S)-2-(1-cyclopropyl-1H-pyrazol-4-yl)-4-morpholinyl)-2-methyl-1,6-naphthyridine], the EC50 is 50 to 500 nM and the “hTREM2 Emax” value is “++++ (Emax>250)”.

Consider `Cc1cc2c(-c3ccc(Cl)cc3F)nc(N3CCO[C@@H](c4cnn(C)c4)C3)nc2nc1C` [Example 103, 4-(4-chloro-2-fluorophenyl)-6,7-dimethyl-2-((2S)-2-(1-methyl-1H-pyrazol-4-yl)-4-morpholinyl)pyrido[2,3-d]pyrimidine], for which the EC50 was not above 50 nM and the “hTREM2 Emax” value is “++++ (Emax>250)”.

As for `Cn1cc([C@H]2CN(c3cc(-c4ccc(Cl)cc4F)c4cccnc4n3)CCO2)cn1` [Example 155, 4-(4-chloro-2-fluorophenyl)-2-((2S)-2-(1-methyl-1H-pyrazol-4-yl)-4-morpholinyl)-1,8-naphthyridine], the EC50 lay in the range of 500 to 3000 nM; the “hTREM2 Emax” value is “++ (Emax>100 and ≤150)”.

With `Cc1cc2c(OCC3CC(F)(F)C3)nc(N3CCO[C@@H](c4cnn(C)c4)C3)nc2nc1C` [Example 108, 4-((3,3-difluorocyclobutyl)methoxy)-6,7-dimethyl-2-((2S)-2-(1-methyl-1H-pyrazol-4-yl)-4-morpholinyl)pyrido[2,3-d]pyrimidine], the EC50 lay within 50 to 500 nM; the “hTREM2 Emax” value is “+ (Emax>45 and ≤100)”.

Regarding `Cc1cnc2c(-c3ccc(Cl)cc3F)nc([C@@H]3CCO[C@H](c4cnn(C5CC5)c4)C3)nc2n1` [Example 270, 4-(4-chloro-2-fluorophenyl)-2-((2S,4R)-2-(1-cyclopropyl-1H-pyrazol-4-yl)tetrahydro-2H-pyran-4-yl)-7-methylpteridine], the EC50 lay within 500 to 3000 nM; the “hTREM2 Emax” value is “+++ (Emax>150 and ≤250)”.

With `Cc1cc([C@H]2CN(c3nc4nc(C)cnc4c([C@H]4C[C@@H](C(F)(F)F)C4)n3)CCO2)ccn1` [Example 15, 7-methyl-2-((2S)-2-(2-methyl-4-pyridinyl)-4-morpholinyl)-4-(cis-3-(trifluoromethyl)cyclobutyl)pteridine], the EC50 lay within 50 to 500 nM; the “hTREM2 Emax” value is “++ (Emax>100 and ≤150)”.

In turn, `Cc1nc2nc(N3CCO[C@@H](c4cnn(C)c4)C3)nc(N3CC(F)C3)c2nc1C` [Example 29, 4-(3-fluoro-1-azetidinyl)-6,7-dimethyl-2-((2S)-2-(1-methyl-1H-pyrazol-4-yl)-4-morpholinyl)pteridine] displayed an EC50 of 3000 to 100000 nM.

Consider `Cc1cc2c(-c3ccc(Cl)cc3F)nc([C@H]3C[C@@H](C)O[C@@H](c4cnn(C)c4)C3)nc2nc1C` (single isomer, unassigned) [Example 229], for which the EC50 is not above 50 nM; the “hTREM2 Emax” value is “+++ (Emax>150 and ≤250)”.

These data come from patent US11884675B2, “Heterocyclic compounds as triggering receptor expressed on myeloid cells 2 agonists and methods of use” (AMGEN INC., priority 2020, dated 2024).
